Source: ChEMBL document CHEMBL1135293, “Amino acid derived sulfonamide hydroxamates as inhibitors of procollagen C-proteinase. Part 2: Solid-phase optimization of side chains” (Bioorg Med Chem Lett, 2002)

Target: T1, Bone morphogenetic protein 1 (Homo sapiens, UniProt P13497)
T1 sequence (P13497 whole entry): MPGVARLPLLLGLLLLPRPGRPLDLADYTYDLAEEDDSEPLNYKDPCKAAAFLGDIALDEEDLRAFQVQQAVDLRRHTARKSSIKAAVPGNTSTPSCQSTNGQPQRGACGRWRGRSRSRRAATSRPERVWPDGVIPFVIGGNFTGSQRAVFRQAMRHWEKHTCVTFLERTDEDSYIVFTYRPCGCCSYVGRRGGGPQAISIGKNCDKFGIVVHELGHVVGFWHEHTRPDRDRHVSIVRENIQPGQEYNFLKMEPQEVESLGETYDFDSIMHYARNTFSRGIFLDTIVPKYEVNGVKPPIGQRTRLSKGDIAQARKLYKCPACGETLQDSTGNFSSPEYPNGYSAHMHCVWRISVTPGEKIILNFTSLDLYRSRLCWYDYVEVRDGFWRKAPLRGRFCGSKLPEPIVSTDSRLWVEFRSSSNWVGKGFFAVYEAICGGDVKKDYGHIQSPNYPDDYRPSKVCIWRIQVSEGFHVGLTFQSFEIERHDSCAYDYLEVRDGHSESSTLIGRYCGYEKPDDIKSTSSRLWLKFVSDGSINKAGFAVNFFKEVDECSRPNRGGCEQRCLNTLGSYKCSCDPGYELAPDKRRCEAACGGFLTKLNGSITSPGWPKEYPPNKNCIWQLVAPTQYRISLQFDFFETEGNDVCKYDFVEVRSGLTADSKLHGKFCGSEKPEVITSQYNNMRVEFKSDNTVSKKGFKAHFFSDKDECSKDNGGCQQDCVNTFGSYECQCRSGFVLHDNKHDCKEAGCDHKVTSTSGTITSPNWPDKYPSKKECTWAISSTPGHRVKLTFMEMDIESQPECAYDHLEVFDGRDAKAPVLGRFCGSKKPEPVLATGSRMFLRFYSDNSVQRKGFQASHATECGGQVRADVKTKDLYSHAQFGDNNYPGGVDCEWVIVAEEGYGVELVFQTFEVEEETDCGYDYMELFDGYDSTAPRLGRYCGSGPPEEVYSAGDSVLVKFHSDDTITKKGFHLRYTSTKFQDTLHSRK
Test: Inhibitory activity against Procollagen C-Proteinase (PCP)

IC50 | Compound
14 nM | COc1ccc(S(=O)(=O)N(Cc2ccc3c(c2)OCO3)[C@@H](C(=O)NO)C(=O)C(N)CNC(=O)OCc2ccccc2)cc1 (stereo partly drawn)
30 nM | COc1ccc(S(=O)(=O)N(Cc2ccc(Cl)c([N+](=O)[O-])c2)[C@H](C)C(=O)NO)cc1
45 nM | COc1ccc(S(=O)(=O)N(Cc2ccc3c(c2)OCO3)[C@H](CSc2ccc(C)cc2)C(=O)NO)cc1
23 nM | COc1ccc(S(=O)(=O)N(Cc2ccc3c(c2)OCO3)[C@H](COC(C)(C)C)C(=O)NO)cc1
60 nM | COc1ccc(S(=O)(=O)N(Cc2sc3scc(C)c3c2C)[C@H](C)C(=O)NO)cc1
36 nM | COc1ccc(S(=O)(=O)N(Cc2ccc3c(c2)OCO3)[C@H](Cc2cncn2C(c2ccccc2)(c2ccccc2)c2ccccc2)C(=O)NO)cc1
130 nM | C=CCOc1ccc2ccc(CN([C@H](C)C(=O)NO)S(=O)(=O)c3ccc(OC)cc3)cc2c1
32 nM | COc1ccc(CSC[C@H](C(=O)NO)N(Cc2ccc3c(c2)OCO3)S(=O)(=O)c2ccc(OC)cc2)cc1
40 nM | COc1ccc(C[C@H](C(=O)NO)N(Cc2ccc3c(c2)OCO3)S(=O)(=O)c2ccc(OC)cc2)cc1
16 nM | COc1ccc(S(=O)(=O)N(Cc2ccc3c(c2)OCO3)[C@H](CCCCNC(=O)OCc2ccccc2)C(=O)NO)cc1
230 nM | COc1ccc(S(=O)(=O)N(Cc2ccc(C(C)C)cc2)[C@H](C)C(=O)NO)cc1
18 nM | COc1ccc(S(=O)(=O)N(Cc2ccc3c(c2)OCO3)[C@@H](C(=O)NO)C(=O)C(N)CNC(=O)OCc2ccccc2Br)cc1 (stereo partly drawn)
0.2 nM | COc1ccc(S(=O)(=O)N(Cc2ccc3c(c2)OCO3)[C@H](Cc2cccs2)C(=O)NO)cc1 (stereo in doubt; 41)
180 nM | COc1ccc(S(=O)(=O)N(Cc2cnc(Cl)s2)[C@H](C)C(=O)NO)cc1
40 nM | COc1ccc(S(=O)(=O)N(Cc2sccc2Oc2ccccc2)[C@H](C)C(=O)NO)cc1
93 nM | COc1ccc(S(=O)(=O)N(Cc2cccc(Br)c2)[C@H](C)C(=O)NO)cc1
27 nM | COc1ccc(S(=O)(=O)N(Cc2ccc3c(c2)OCO3)[C@H](Cc2cncn2Cc2ccccc2)C(=O)NO)cc1

IC50 | Compound
120 nM | COc1ccc(S(=O)(=O)N(Cc2ccc(Cl)c(Cl)c2)[C@H](C)C(=O)NO)cc1
53 nM | COc1ccc(S(=O)(=O)N(Cc2ccc3c(c2)OCO3)[C@@H](C(=O)NO)C(C)C)cc1
76 nM | COc1ccc(S(=O)(=O)N(Cc2ccc(F)c(F)c2)[C@H](C)C(=O)NO)cc1
52 nM | COc1ccc(S(=O)(=O)N(Cc2ccc3c(c2)OCO3)[C@H](CCCNC(=O)OC(C)(C)C)C(=O)NO)cc1
120 nM | COc1ccc(S(=O)(=O)N(Cc2cccc(C)c2[N+](=O)[O-])[C@H](C)C(=O)NO)cc1
90 nM | COc1ccc(S(=O)(=O)N(Cc2cccc3ccccc23)[C@H](C)C(=O)NO)cc1
170 nM | COc1ccc(S(=O)(=O)N(CCn2cccc2)[C@H](C)C(=O)NO)cc1
4.6 nM | COc1ccc(S(=O)(=O)N(Cc2ccc3c(c2)OCO3)[C@@H](C(=O)NO)C(=O)C(N)CNC(=O)OCc2ccccc2Cl)cc1 (stereo partly drawn)
230 nM | COc1ccc(S(=O)(=O)N(Cc2cc(C)on2)[C@H](C)C(=O)NO)cc1
220 nM | COc1ccc(S(=O)(=O)N(Cc2cc(C(F)(F)F)cc(C(F)(F)F)c2)[C@H](C)C(=O)NO)cc1
0.2 nM | COc1ccc(S(=O)(=O)N(Cc2ccc3c(c2)OCO3)[C@H](Cc2cccs2)C(=O)NO)cc1 (stereo in doubt; 2)
70 nM | COc1ccc(S(=O)(=O)N(Cc2ccc(Br)cc2)[C@H](Cc2cccs2)C(=O)NO)cc1
0.024 nM | COc1ccc(S(=O)(=O)N(Cc2ccc3c(c2)OCO3)[C@@H](C(=O)NO)C(=O)C(N)CNC(=O)OCC2c3ccccc3-c3ccccc32)cc1 (stereo partly drawn)
60 nM | COc1ccc(S(=O)(=O)N(Cc2ccc(C)c([N+](=O)[O-])c2)[C@H](Cc2cccs2)C(=O)NO)cc1
6 nM | COc1ccc(S(=O)(=O)N(Cc2ccccc2C(F)(F)F)[C@H](C)C(=O)NO)cc1
80 nM | COc1ccc(S(=O)(=O)N(Cc2ccc(SC)cc2)[C@H](C)C(=O)NO)cc1
